Assay results from patent US8415469B2, “Compounds and methods for kinase modulation, and indications therefor” (Plexxikon Inc., priority 2005, dated 2013).

How the values were obtained:
Assay type in all cases: biochemical
Ret = target: T1, Ret (Homo sapiens, UniProt P07949); experiment: AlphaScreen kinase assay, Ret; details: read-out: IC50, activity toward kinase Ret
T1 construct: P1378.pET-SF BI-PTP RET H661-R1012 HIS; made in house
T1 sequence (P07949 with tags, fused parts or gaps): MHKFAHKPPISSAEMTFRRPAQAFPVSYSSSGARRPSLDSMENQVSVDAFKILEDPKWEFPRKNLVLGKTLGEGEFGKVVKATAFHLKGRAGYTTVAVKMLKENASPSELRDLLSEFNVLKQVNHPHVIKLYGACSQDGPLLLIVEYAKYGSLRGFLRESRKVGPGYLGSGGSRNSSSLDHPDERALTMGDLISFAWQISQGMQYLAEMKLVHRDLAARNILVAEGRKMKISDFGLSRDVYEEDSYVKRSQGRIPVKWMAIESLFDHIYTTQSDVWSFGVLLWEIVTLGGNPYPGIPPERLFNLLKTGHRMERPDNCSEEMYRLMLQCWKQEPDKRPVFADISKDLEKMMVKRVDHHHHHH

Kit = target: T2, Kit (Homo sapiens, UniProt P10721); experiment: AlphaScreen kinase assay, Kit; details: read-out: IC50, activity toward kinase Kit
T2 construct: P1332.N6 BI PTP KIT M552-K948-X COD; His6 (N); made in house; host or cells: E. coli (PTP1B co-expressed)

FGFR1 = target: T3, FGFR1 (Homo sapiens, UniProt P11362, C488A/C584S); experiment: AlphaScreen kinase assay, FGFR1; details: read-out: IC50, activity toward kinase FGFR
T3 construct: P1351.pET N6 BI-PTP FGFR A458-E765-X C488A, C584S; made in house; host or cells: E. coli (PTP1B co-expressed)

Zap70 = target: T4, Zap70 (Homo sapiens, UniProt P43403); experiment: AlphaScreen kinase assay, Zap70; details: read-out: IC50, activity toward kinase Zap70
T4 construct: P1868.pFastBac1 ZAP70 D327-G606 HIS, WT; His7 (HHHHHHH) (C); made in house
T4 sequence (P43403 with tags, fused parts or gaps): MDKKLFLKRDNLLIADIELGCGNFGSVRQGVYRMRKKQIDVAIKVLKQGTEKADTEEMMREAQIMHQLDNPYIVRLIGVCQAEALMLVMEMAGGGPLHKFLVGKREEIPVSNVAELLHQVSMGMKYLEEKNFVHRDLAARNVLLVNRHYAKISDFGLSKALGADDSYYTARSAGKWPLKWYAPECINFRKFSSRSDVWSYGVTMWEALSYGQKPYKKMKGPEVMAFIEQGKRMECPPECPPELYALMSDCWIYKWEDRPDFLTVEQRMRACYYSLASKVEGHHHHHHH
Excerpt: AlphaScreen assay was used to screen additional kinases. The assay is similarly dependent on the phosphorylation of a peptide substrate. In this assay, an antibody that recognizes phosphorylated substrate is bound to an acceptor bead. The peptide substrate is attached to biotin, which binds to a donor head that contains streptavidin. Thus phosphorylated substrate is bound by antibody and streptavidin, bringing the donor and acceptor heads into close proximity when kinase is not inhibited. The donor produces singlet oxygen which results in emission from the acceptor when they are in close proximity. Conversely, when kinase is inhibited, the donor and acceptor beads are not associated and the emission from the acceptor is reduced.
AlphaScreen assays were done using compounds dissolved in DMSO to a concentration of 20 mM. The compounds were diluted accordingly to the desired final concentrations in each sample well, using 1:3 serial dilution for a total of 8 concentration points.

B-Raf V600E = target: T5, B-Raf V600E (Homo sapiens, UniProt P15056, V600E); experiment: AlphaScreen kinase assay, B-Raf V600E; details: read-out: IC50, activity toward kinase B-Raf V600E
T5 construct: P4254. pFastBacBD-CDC37 BRAF D437-K722-X, V600E; His6 with pFastBac HT leader (TEV site) (N); made in house; host or cells: Sf9 (baculovirus; chaperone CDC37 co-expressed)

Jnk3 = target: T6, Jnk3 (Homo sapiens, UniProt P53779); experiment: AlphaScreen kinase assay, Jnk3; details: read-out: IC50, activity toward kinase Jnk3
T6 construct: purchased Upstate Biotechnology

Kdr = target: T7, Kdr (Homo sapiens, UniProt P35968); experiment: Z'-Lyte FRET kinase assay (Invitrogen), Kdr; details: read-out: IC50, activity toward kinase Kdr
T7 construct: purchased Invitrogen (assay run by Invitrogen)

Fak = target: T8, Fak (Homo sapiens, UniProt Q05397); experiment: AlphaScreen kinase assay, Fak; details: read-out: IC50, activity toward kinase Fak
T8 construct: P1358.pFastBacHtb FAK S411-Q686-X; His6 with pFastBacHTb leader (TEV site) (N); made in house; host or cells: Sf9 (baculovirus)

Stk6 = target: T9, Stk6 (Homo sapiens, UniProt O14965); experiment: Z'-Lyte FRET kinase assay (Invitrogen), Stk6; details: read-out: IC50, activity toward kinase Stk6
T9 construct: purchased Invitrogen (Carlsbad, Calif.), screening service
T9 sequence (O14965 1-403): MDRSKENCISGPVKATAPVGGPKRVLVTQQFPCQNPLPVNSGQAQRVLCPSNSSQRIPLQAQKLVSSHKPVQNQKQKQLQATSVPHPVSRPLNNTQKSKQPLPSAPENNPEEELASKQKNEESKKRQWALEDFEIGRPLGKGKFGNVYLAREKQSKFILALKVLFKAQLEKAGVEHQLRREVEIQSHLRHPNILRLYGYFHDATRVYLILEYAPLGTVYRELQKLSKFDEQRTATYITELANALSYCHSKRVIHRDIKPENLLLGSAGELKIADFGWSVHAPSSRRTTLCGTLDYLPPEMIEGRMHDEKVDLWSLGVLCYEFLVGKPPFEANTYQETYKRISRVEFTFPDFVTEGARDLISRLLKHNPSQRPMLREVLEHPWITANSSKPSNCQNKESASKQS
Excerpt: For example, direct radiometric, indirect FRET or AlphaScreen assays may be used to assess the level of phosphorylation of a substrate in the presence of test compounds in order to determine the inhibitory affect of the compound on the kinase. […] For these assays, compounds of the invention were screened by Invitrogen using Z′-Lyte™ kinase assay.
Briefly, the Invitrogen kinase assay involves use of a specific peptide substrate optimized for each kinase, containing a fluorophore at each end that make up the FRET pair. The peptide sensitivity to proteolytic cleavage depends on phosphorylation of the peptide. Non-phosphorylated peptide is cleaved by a protease while peptide phosphorylated by the kinase is not cleaved. Cleavage of the peptide disrupts the FRET between the donor (coumarin) and acceptor (fluorescein) fluorophores, resulting in an increase in the ratio of donor emission to acceptor emission. The emission ratio of coumarin to fluorescein is used to assess the reaction progress. […] Thus, the assay involves a kinase reaction in the presence of varying concentrations of a given compound, a development reaction with site specific protease, and detection of the fluorescent emission ratio of coumarin and fluorscein. […] Reaction conditions for each kinase are determined to provide optimal reaction times, incubation temperature, kinase and ATP concentrations. Test samples are made up in 1× kinase buffer (50 mM HEPES pH 7.5, 50 mM MgCl2, 5 mM EGTA, 0.05% BRIJ-35) and compound at desired concentration prepared in DMSO such that the final DMSO is 1%. […] All kinase except for MAP2K1 were at 10 μM ATP in the kinase reaction, while MAP2K1 was at 100 μM. Samples are mixed and the kinase reaction is incubated 1 hour at room temperature, after which 5 μl of development solution is added and mixed. After incubation for another 1 hour at room temperature, 5 μl of stop reagent is added to each sample and mixed. The fluorescence signals are measured to determine the emission ratio.

T6 sequence (P53779 whole entry): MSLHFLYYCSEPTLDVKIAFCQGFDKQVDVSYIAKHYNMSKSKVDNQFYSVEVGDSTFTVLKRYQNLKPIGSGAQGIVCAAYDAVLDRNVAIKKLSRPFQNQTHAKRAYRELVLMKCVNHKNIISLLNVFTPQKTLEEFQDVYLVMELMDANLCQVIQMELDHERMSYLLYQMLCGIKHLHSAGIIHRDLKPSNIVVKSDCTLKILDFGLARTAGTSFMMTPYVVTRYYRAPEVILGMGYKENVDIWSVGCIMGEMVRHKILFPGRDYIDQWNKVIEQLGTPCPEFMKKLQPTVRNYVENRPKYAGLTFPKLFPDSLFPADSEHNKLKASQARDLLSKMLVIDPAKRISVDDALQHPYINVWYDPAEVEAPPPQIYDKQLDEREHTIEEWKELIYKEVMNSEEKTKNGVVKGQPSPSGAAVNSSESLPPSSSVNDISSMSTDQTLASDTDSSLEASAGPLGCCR
T7 sequence (P35968 20-1356): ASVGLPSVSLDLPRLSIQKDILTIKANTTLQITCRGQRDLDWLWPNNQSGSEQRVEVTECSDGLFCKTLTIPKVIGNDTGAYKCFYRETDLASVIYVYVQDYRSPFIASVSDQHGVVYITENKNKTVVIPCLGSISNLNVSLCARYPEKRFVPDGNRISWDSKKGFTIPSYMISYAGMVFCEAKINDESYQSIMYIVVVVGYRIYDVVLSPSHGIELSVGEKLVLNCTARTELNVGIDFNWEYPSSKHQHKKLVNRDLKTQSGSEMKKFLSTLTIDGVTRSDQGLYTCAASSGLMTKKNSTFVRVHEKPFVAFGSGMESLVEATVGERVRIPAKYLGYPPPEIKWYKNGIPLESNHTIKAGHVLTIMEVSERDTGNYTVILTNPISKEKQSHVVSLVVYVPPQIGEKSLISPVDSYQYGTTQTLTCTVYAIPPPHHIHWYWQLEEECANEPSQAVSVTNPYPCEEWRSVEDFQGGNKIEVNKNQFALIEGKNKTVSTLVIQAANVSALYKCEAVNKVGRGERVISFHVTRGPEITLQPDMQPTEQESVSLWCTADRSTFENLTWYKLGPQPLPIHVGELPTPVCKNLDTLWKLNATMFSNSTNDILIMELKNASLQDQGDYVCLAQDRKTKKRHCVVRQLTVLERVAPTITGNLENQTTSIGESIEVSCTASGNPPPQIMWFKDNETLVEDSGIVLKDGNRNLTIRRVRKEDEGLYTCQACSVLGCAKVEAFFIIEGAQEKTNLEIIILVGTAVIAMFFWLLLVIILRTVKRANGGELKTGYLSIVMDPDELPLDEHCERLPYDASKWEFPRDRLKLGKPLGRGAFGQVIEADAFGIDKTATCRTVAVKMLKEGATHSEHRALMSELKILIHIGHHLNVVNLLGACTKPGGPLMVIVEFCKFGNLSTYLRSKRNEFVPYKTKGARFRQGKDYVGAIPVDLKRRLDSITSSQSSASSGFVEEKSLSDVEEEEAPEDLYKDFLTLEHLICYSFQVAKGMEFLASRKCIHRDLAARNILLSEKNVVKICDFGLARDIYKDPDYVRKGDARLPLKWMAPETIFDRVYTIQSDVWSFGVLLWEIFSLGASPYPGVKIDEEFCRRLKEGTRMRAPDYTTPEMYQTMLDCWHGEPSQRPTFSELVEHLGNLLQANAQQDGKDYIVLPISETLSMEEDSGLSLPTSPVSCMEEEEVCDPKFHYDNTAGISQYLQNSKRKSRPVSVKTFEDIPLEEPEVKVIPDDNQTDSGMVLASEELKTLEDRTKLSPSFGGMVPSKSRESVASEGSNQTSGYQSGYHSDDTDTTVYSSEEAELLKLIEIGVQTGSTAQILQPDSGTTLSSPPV
T5 sequence (P15056 with tags, fused parts or gaps V600E): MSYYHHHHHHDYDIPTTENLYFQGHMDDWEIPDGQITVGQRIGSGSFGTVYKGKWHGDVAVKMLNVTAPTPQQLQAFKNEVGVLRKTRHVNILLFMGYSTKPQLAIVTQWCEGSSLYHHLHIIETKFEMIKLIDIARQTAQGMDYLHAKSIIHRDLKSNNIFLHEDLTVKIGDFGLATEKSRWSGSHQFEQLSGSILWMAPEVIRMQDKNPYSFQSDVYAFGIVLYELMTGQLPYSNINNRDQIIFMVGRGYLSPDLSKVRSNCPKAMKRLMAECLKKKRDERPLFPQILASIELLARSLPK
T3 sequence (P11362 458-765 C488A/C584S): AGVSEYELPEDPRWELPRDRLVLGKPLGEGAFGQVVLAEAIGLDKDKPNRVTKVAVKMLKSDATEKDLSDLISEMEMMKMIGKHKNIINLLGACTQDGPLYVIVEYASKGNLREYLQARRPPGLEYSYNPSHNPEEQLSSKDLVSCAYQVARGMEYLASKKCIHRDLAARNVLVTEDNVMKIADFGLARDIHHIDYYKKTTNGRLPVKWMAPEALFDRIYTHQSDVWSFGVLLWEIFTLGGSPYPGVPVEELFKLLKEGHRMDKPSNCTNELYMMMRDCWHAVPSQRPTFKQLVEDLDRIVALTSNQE
T2 sequence (P10721 with tags, fused parts or gaps): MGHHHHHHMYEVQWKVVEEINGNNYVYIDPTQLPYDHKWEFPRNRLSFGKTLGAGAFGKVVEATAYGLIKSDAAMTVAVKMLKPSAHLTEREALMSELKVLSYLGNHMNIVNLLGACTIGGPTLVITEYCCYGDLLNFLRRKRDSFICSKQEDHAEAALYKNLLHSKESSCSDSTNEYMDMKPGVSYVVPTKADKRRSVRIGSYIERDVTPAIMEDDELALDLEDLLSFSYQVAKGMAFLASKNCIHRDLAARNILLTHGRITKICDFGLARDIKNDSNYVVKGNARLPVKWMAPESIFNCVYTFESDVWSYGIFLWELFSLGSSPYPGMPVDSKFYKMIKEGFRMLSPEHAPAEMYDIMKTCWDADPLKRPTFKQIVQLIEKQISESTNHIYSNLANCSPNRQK
T8 sequence (Q05397 411-686): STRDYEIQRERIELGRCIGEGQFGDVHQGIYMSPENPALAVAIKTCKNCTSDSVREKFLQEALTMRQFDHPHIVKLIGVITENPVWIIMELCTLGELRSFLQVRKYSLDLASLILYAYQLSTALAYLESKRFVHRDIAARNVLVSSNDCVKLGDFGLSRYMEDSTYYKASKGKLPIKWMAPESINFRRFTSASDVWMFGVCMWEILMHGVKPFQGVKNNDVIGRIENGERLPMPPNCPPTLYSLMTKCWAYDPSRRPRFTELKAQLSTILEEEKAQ

SMILES | IC50 (Ret) | IC50 (Zap70) | further results
O=C(c1cccc(F)c1)c1c[nH]c2ncc(Br)cc12 [Compound P-0865] | ≤ 10 µM | ≤ 10 µM | IC50 (Kit): ≤ 10 µM; IC50 (FGFR1): ≤ 10 µM
CCCCc1ccc(S(=O)(=O)NCc2c[nH]c3ncccc23)cc1 [Compound P-1119] | ≤ 10 µM | ≤ 10 µM | 
Cc1cc(C(=O)c2c[nH]c3nccc(-c4cccc(/C=C/C(=O)O)c4)c23)no1 [Compound P-1000] | ≤ 10 µM | ≤ 10 µM | IC50 (B-Raf V600E): ≤ 10 µM
O=C(c1cccc(F)c1)c1c[nH]c2ncc(-c3ccsc3)cc12 [Compound P-0378] | ≤ 10 µM | ≤ 10 µM | IC50 (Kit): ≤ 10 µM; IC50 (Jnk3): ≤ 10 µM
Fc1ccccc1-c1c[nH]c2ncccc12 [Compound P-0195] |  | ≤ 10 µM | IC50 (Kit): ≤ 10 µM; IC50 (Kdr): ≤ 10 µM
Fc1cc(F)cc(-c2ccnc3[nH]ccc23)c1 [Compound P-0296] |  | ≤ 10 µM | IC50 (Kdr): ≤ 10 µM
O=C(O)/C=C/c1cccc(-c2cnc3[nH]cc(C(=O)c4ccc5nsnc5c4)c3c2)c1 [Compound P-1019] | ≤ 10 µM | ≤ 10 µM | 
CN1CCN(Cc2ccc(C(=O)Nc3ccc(Cc4c[nH]c5ncccc45)cc3)cc2)CC1 [Compound P-0795] | ≤ 10 µM | ≤ 10 µM | IC50 (Fak): ≤ 10 µM
O=S(=O)(NCc1c[nH]c2ncccc12)c1ccc(-c2cccc(CO)c2)cc1 [Compound P-0193] |  | ≤ 10 µM | IC50 (Stk6): ≤ 10 µM
O=C(c1cccc(O)c1)c1ccc(-c2cnc3[nH]ccc3c2)s1 [Compound P-0755] |  | ≤ 10 µM | IC50 (Kit): ≤ 10 µM; IC50 (Jnk3): ≤ 10 µM
COc1cccc(C(=O)c2c[nH]c3ncc(-c4cccnc4)cc23)c1 [Compound P-0218] |  | ≤ 10 µM | IC50 (Jnk3): ≤ 10 µM
COc1ccc(F)cc1Cc1c[nH]c2ncccc12 [Compound P-0348] |  | ≤ 10 µM | IC50 (Stk6): ≤ 10 µM
O=C(c1cccc(Cl)c1Cl)c1c[nH]c2ncc(-c3ccsc3)cc12 [Compound P-0698] | ≤ 10 µM | ≤ 10 µM | IC50 (Jnk3): ≤ 10 µM; IC50 (B-Raf V600E): ≤ 10 µM; IC50 (FGFR1): ≤ 10 µM
NC(=O)c1ccc(-c2cnc3[nH]cc(C(=O)c4ccc5nsnc5c4)c3c2)cc1 [Compound P-1081] | ≤ 10 µM | ≤ 10 µM | 
NC(=O)c1ccc(-c2cnc3[nH]cc(C(=O)c4ccc(Cl)cc4)c3c2)cc1 [Compound P-1073] | ≤ 10 µM | ≤ 10 µM | 
Cc1[nH]c2ncccc2c1-c1cccs1 [Compound P-0249] |  | ≤ 10 µM | IC50 (Stk6): ≤ 10 µM

SMILES | IC50 (Ret) | IC50 (Zap70) | further results
O=S(=O)(c1ccsc1)N1CCN(Cc2c[nH]c3ncccc23)CC1 [Compound P-1051] |  | ≤ 10 µM | 
COc1cc(CCNCc2cc3cccnc3[nH]2)ccc1O [Compound P-0836] |  | ≤ 10 µM | 
CC(C)(C)NCc1c[nH]c2ncccc12 [Compound P-0476] |  | ≤ 10 µM | 
O=C(NCc1ccccc1Cl)NCc1c[nH]c2ncccc12 [Compound P-0982] |  | ≤ 10 µM | 
O=Cc1ccc(-c2ccnc3[nH]ccc23)cc1 [Compound P-0996] |  | ≤ 10 µM | 
O=C1CCCN1CCCNCc1c[nH]c2ncccc12 [Compound P-1184] |  | ≤ 10 µM | 
CC(C)c1ccc(Cc2c[nH]c3ncccc23)cn1 [Compound P-0379] |  | ≤ 10 µM | IC50 (FGFR1): ≤ 10 µM; IC50 (Kdr): ≤ 10 µM
COc1cccc(C(=O)c2c[nH]c3ncc(-c4ccc(C(N)=O)cc4)cc23)c1 [Compound P-1005] | ≤ 10 µM | ≤ 10 µM | IC50 (Jnk3): ≤ 10 µM
COc1ccc(Cc2c[nH]c3ncccc23)cc1F [Compound P-0359] |  | ≤ 10 µM | 
COC(c1ccc(Br)cc1)c1c[nH]c2ncc(-c3cccc(S(C)(=O)=O)c3)cc12 (stereo not drawn) [Compound P-0434] | ≤ 10 µM | ≤ 10 µM | IC50 (B-Raf V600E): ≤ 10 µM
Cc1cc(C)cc(Cc2c[nH]c3ncccc23)c1 [Compound P-0507] |  | ≤ 10 µM | IC50 (FGFR1): ≤ 10 µM
c1cnc2[nH]c(CNCCc3ccncc3)cc2c1 [Compound P-0880] |  | ≤ 10 µM | 
Brc1c(CNCc2cccnc2)[nH]c2ncccc12 [Compound P-0875] |  | ≤ 10 µM | 
CS(=O)(=O)Nc1cccc(-c2cnc3[nH]cc(C(=O)c4ccc5nsnc5c4)c3c2)c1 [Compound P-1089] | ≤ 10 µM | ≤ 10 µM | 
CS(=O)(=O)c1ccc(CNCc2[nH]c3ncccc3c2-c2cccc(CO)c2)cc1 [Compound P-0523] |  | ≤ 10 µM | 
